In patent US9686984B2, “Macrocyclic picolinamides as fungicides” (DOW AGROSCIENCES LLC, priority 2014, dated 2017):
Where two headings read alike, the source gives them in different places. Blank lines part the entries; values can stand above or below the molecule they belong to.

Legend:
[1] = test system: Zymoseptoria tritici; assay: Leaf Blotch of Wheat (SEPTTR) disease control on wheat seedlings; type: in vivo; conditions: for pest or weed control at 121.5 g/ha: Low Volume (121.5 g/H); for pest or weed control at 100 µg/mL: High Volume (100 ppm)
Method: Example A: Evaluation of Fungicidal Activity: Leaf Blotch of Wheat (Mycosphaerella graminicola; Anamorph: Zymoseptoria tritici; Bayer code […]) Technical grades of materials were dissolved in acetone, which were then mixed with nine volumes of water containing 110 ppm Triton X-100. The fungicide solutions were applied onto wheat seedlings using an automated booth sprayer to run-off. All sprayed plants were allowed to air dry prior to further handling. All fungicides were evaluated using the aforementioned method for their activity vs. all target diseases, unless stated otherwise. Wheat leaf blotch and brown rust activity were also evaluated using track spray applications, in which case the fungicides were formulated as EC formulations, containing 0.1% Trycol 5941 in the spray solutions. Wheat plants (variety Yuma) were grown from seed in a greenhouse in 50% mineral soil/50% soil-less Metro mix until the first leaf was fully emerged, with 7-10 seedlings per pot. These plants were inoculated with an aqueous spore suspension of Septoria tritici either prior to or after fungicide treatments. After inoculation the plants were kept in 100% relative humidity (one day in a dark dew chamber followed by two to three days in a lighted dew chamber at 20° C.) to permit spores to germinate and infect the leaf. The plants were then transferred to a greenhouse set at 20° C. for disease to develop. When disease symptoms were fully expressed on the 1st leaves of untreated plants, infection levels were assessed on a scale of 0 to 100 percent disease severity. Percent disease control was calculated using the ratio of disease severity on treated plants relative to untreated plants.

[2] = test system: Puccinia triticina; assay: Wheat Brown Rust (PUCCRT) disease control on wheat seedlings; type: in vivo; conditions: for pest or weed control at 121.5 g/ha: Low Volume (121.5 g/H); for pest or weed control at 100 µg/mL: High Volume (100 ppm)
Method: Technical grades of materials were dissolved in acetone, which were then mixed with nine volumes of water containing 110 ppm Triton X-100. The fungicide solutions were applied onto wheat seedlings using an automated booth sprayer to run-off. All sprayed plants were allowed to air dry prior to further handling. All fungicides were evaluated using the aforementioned method for their activity vs. all target diseases, unless stated otherwise. Wheat leaf blotch and brown rust activity were also evaluated using track spray applications, in which case the fungicides were formulated as EC formulations, containing 0.1% Trycol 5941 in the spray solutions. Wheat plants (variety Yuma) were grown from seed in a greenhouse in 50% mineral soil/50% soil-less Metro mix until the first leaf was fully emerged, with 7-10 seedlings per pot. These plants were inoculated with an aqueous spore suspension of Septoria tritici either prior to or after fungicide treatments. After inoculation the plants were kept in 100% relative humidity (one day in a dark dew chamber followed by two to three days in a lighted dew chamber at 20° C.) to permit spores to germinate and infect the leaf. The plants were then transferred to a greenhouse set at 20° C. for disease to develop. When disease symptoms were fully expressed on the 1st leaves of untreated plants, infection levels were assessed on a scale of 0 to 100 percent disease severity. Percent disease control was calculated using the ratio of disease severity on treated plants relative to untreated plants. Example B: Evaluation of Fungicidal Activity: Wheat Brown Rust (Puccinia triticina; Synonym: Puccinia recondita f. sp. tritici; Bayer code PUCCRT) Wheat plants (variety Yuma) were grown from seed in a greenhouse in 50% mineral soil/50% soil-less Metro mix until the first leaf was fully emerged, with 7-10 seedlings per pot. These plants were inoculated with an aqueous spore suspension of Puccinia triticina either prior to or after fungicide treatments. After inoculation the plants were kept in a dark dew room at 22° C. with 100% relative humidity overnight to permit spores to germinate and infect the leaf. The plants were then transferred to a greenhouse set at 24° C. for disease to develop. Fungicide formulation, application and disease assessment followed the procedures as described in the Example A.

[3] = test system: Phakopsora pachyrhizi; assay: Asian Soybean Rust (PHAKPA) disease control; type: in vivo; conditions: 25 ppm
Method: Example H: Evaluation of Fungicidal Activity: Asian Soybean Rust (Phakopsora pachyrhizi; Bayer Code […]) Technical grades of materials were dissolved in acetone, which were then mixed with nine volumes of water containing 0.011% Tween 20. The fungicide solutions were applied onto soybean seedlings using an automated booth sprayer to run-off. All sprayed plants were allowed to air dry prior to further handling. Soybean plants (variety Williams 82) were grown in soil-less Metro mix, with one plant per pot. Two weeks old seedlings were used for testing. Plants were inoculated either 3 days prior to or 1 day after fungicide treatments. Plants were incubated for 24 h in a dark dew room at 22° C. and 100% relative humidity then transferred to a growth room at 23° C. for disease to develop. Disease severity was assessed on the sprayed leaves.

[4] = 24 h, 1 Day Protectant, read-out: SEPTTR disease control, 1 DP
[5] = 72 h, 3 Day Curative, read-out: SEPTTR disease control, 3 DC
[6] = 24 h, 1 Day Protectant, read-out: PUCCRT disease control, 1 DP
[7] = 72 h, 3 Day Curative, read-out: PUCCRT disease control, 3 DC

- melting point: 49 to 54 °C
SMILES: COc1ccnc(C(=O)N[C@H]2CCO[C@H](CCc3ccc(F)cc3)[C@@H](CCC(C)C)[C@H](C)OC2=O)c1OCOC(C)=O [Compound 27]
- pest or weed control at 121.5 g/ha [1, 4]: > 70%
- pest or weed control at 121.5 g/ha [1, 5]: > 70%
- pest or weed control at 121.5 g/ha [2, 6]: > 70%
- pest or weed control at 121.5 g/ha [2, 7]: > 70%

- melting point: 55 to 60 °C
SMILES: COc1ccnc(C(=O)N[C@H]2CCO[C@H](Cc3ccccc3)[C@@H](CCC(C)C)[C@H](C)OC2=O)c1OCOC(C)=O [Compound 29]
- pest or weed control at 121.5 g/ha [1, 4]: > 70%
- pest or weed control at 121.5 g/ha [1, 5]: > 70%
- pest or weed control at 121.5 g/ha [2, 6]: > 70%
- pest or weed control at 121.5 g/ha [2, 7]: > 70%

- melting point: 49 to 54 °C
SMILES: COc1ccnc(C(=O)N[C@H]2CCO[C@H](CCc3ccc(F)cc3)[C@@H](CCC(C)C)[C@H](C)OC2=O)c1OCOC(=O)C(C)C [Compound 39]
- pest or weed control at 121.5 g/ha [1, 4]: > 70%
- pest or weed control at 121.5 g/ha [1, 5]: < 70%
- pest or weed control at 121.5 g/ha [2, 6]: > 70%
- pest or weed control at 121.5 g/ha [2, 7]: > 70%

- melting point: 54 to 59 °C
SMILES: COc1ccnc(C(=O)N[C@H]2CCOC[C@@H](Cc3ccccc3-c3ccccc3)[C@H](C)OC2=O)c1OCOC(=O)C(C)C [Compound 40]
- pest or weed control at 121.5 g/ha [1, 4]: > 70%
- pest or weed control at 121.5 g/ha [1, 5]: > 70%
- pest or weed control at 121.5 g/ha [2, 6]: > 70%
- pest or weed control at 121.5 g/ha [2, 7]: > 70%

SMILES: CCC[C@H]1OCC[C@H](NC(=O)c2nccc(OC)c2OCOC(=O)COCC)C(=O)O[C@@H](C)[C@@H]1Cc1ccccc1 [Compound 43]
- pest or weed control at 100 µg/mL [1, 4]: > 70%
- pest or weed control at 121.5 g/ha [1, 4]: > 70%
- pest or weed control at 100 µg/mL [1, 5]: > 70%
- pest or weed control at 121.5 g/ha [1, 5]: > 70%
- PHAKPA disease control, 1DP ([3]; 1 Day Protectant): A (>70)
- PHAKPA disease control, 3DC ([3]; 3 Day Curative): A (>70)
- pest or weed control at 100 µg/mL [2, 6]: > 70%
- pest or weed control at 121.5 g/ha [2, 6]: > 70%
- pest or weed control at 100 µg/mL [2, 7]: > 70%
- pest or weed control at 121.5 g/ha [2, 7]: > 70%

- melting point: 52 to 56 °C
SMILES: CCC[C@H]1OCC[C@H](NC(=O)c2nccc(OC)c2O)C(=O)O[C@@H](C)[C@@H]1Cc1ccccc1 [Compound 50]
- pest or weed control at 100 µg/mL [1, 4]: > 70%
- pest or weed control at 100 µg/mL [1, 5]: > 70%
- pest or weed control at 100 µg/mL [2, 6]: > 70%
- pest or weed control at 100 µg/mL [2, 7]: > 70%

- melting point: 44 to 46 °C
SMILES: CCCC[C@H]1[C@H](C)OC(=O)[C@@H](NC(=O)c2nccc(OC)c2O)CCO[C@@H]1CC [Compound 67]
- pest or weed control at 100 µg/mL [1, 4]: > 70%
- pest or weed control at 100 µg/mL [1, 5]: < 70%
- pest or weed control at 100 µg/mL [2, 6]: > 70%
- pest or weed control at 100 µg/mL [2, 7]: > 70%
